System: not listed separately
Assay: Visible solubility / precipitation of test compounds in cell-culture media
Type: physicochemical
Settings: 50 µM; no conclusion on cytotoxicity possible
Protocol: Since the majority of test compound solutions with concentrations above 50 µM precipitated in cell-culture media, we performed cytotoxicity assays for healthy and cancer cells at 50 µM.

Row | SMILES | Precipitation in cell-culture media
1 | COc1cccc(N2CCN(c3cc(O)c([N+](=O)[O-])cc3F)CC2)c1 [Compound 6i, 4-Fluoro-5-[4-(3-methoxy-phenyl)-piperazin-1-yl]-2-nitro-phenol] | precipitation problem
2 | Cc1nc2cc(F)c(N3CCN(c4cccc(O)c4)CC3)cc2o1 [Compound 7h, 3-[4-(5-Fluoro-2-methyl-benzooxazol-6-yl)-piperazin-1-yl]-phenol] | precipitation problem
3 | Cc1nc2cc(F)c(N3CCN(c4ccc(Cl)c(Cl)c4)CC3)cc2o1 [Compound 7j, 6-[4-(3,4-Dichloro-phenyl)-piperazin-1-yl]-5-fluoro-2-methyl-benzooxazole] | precipitation problem
4 | Cc1nc2cc(F)c(N3CCN(c4ccccc4)CC3)cc2o1 [Compound 7a, 5-Fluoro-2-methyl-6-(4-phenylpiperazin-1-yl)-benzo[d]oxazole] | precipitation problem

System: not given
Assay: not given
Settings: not given

Row | melting point [°C] | SMILES
5 | 148 to 149 | COc1cccc(N2CCN(c3cc(O)c([N+](=O)[O-])cc3F)CC2)c1 [Compound 6i, 4-Fluoro-5-[4-(3-methoxy-phenyl)-piperazin-1-yl]-2-nitro-phenol]
6 | 211 to 213 | Cc1nc2cc(F)c(N3CCN(c4cccc(O)c4)CC3)cc2o1 [Compound 7h, 3-[4-(5-Fluoro-2-methyl-benzooxazol-6-yl)-piperazin-1-yl]-phenol]
7 | 147 to 148 | Cc1nc2cc(F)c(N3CCN(c4ccc(Cl)c(Cl)c4)CC3)cc2o1 [Compound 7j, 6-[4-(3,4-Dichloro-phenyl)-piperazin-1-yl]-5-fluoro-2-methyl-benzooxazole]
8 | 153 to 154 | Cc1nc2cc(F)c(N3CCN(c4ccccc4)CC3)cc2o1 [Compound 7a, 5-Fluoro-2-methyl-6-(4-phenylpiperazin-1-yl)-benzo[d]oxazole]

System: HepaRG cells (liver cells, hepatocytes)
Assay: CellTiter-Glo luminescent cell viability (cytotoxicity) assay on hepatocytes
Type: cell-based, human
Settings: 50 µM; HepaRG vs A-549
Protocol: (§1) The cytotoxicity of prepared benzoxazoles (7a–j) and intermediates (6a–j and 9) were measured by applying the CellTiter-Glo® luminescent cell proliferation assay (G755A, Promega, Madison, WI, USA). This method permits the determination of viable cells numbers in the culture based on quantitation of the ATP present, which denotes the presence of metabolically active cells. In vitro cytotoxicity analysis was overall performed following the protocol as described in “Guidance Document on Using in Vitro Data to Estimate in Vivo Starting Doses for Acute Toxicity Based on Recommendations” [18]. Human A-549 cells are human lung cancer epithelial cells, which were chosen as the tumor model, whereas the HepaRG™ cell line is a classic hepatic cell line that retains many characteristics of primary human hepatocytes. HepaRG™ cells are terminally differentiated.
(§2) Human cell cultures: Hepatocytes (HepaRG^TM cells) were obtained from Life Technologies, and were cultivated in William’s E Medium (Gibco, Life Technologies, Waltham, MA, USA) and supplemented with 1x GlutaMAX™ plus 1x HepaRG^TM General Purpose Medium Supplement in 25-cm^2 or 75-cm^2 flasks (TPP, Trasadingen, Switzerland) at 37 °C and 5% CO2. Lung cancer epithelial cells A-549 were propagated in Epilife Medium (Gibco, Life Technologies; MEPICF) and combined with CaCl2 and 1x-growth-supplement containing penicillin and streptomycin (Gibco, Life Technologies). For sub-culturing, cells were split at a ratio of 1:4 to 1:8. For cryopreservation, cells were frozen in 10% DMSO in liquid nitrogen.
(§3) Human cytotoxicity assay: Human hepatocytes or human lung carcinoma cells were seeded into sterile black clear-bottomed polystyrene Corning® CellBind® 96-well plates (Munich, Germany) at a density of 20,000 cells/well after calculating cell numbers from trypsinized samples in a classical Neubauer Improved hemocytometer (VWR, Munich, Germany). The cells were grown for 24 h at 37 °C in a 5% CO2 atmosphere in Epilife medium (keratinocytes) or William′s E medium (hepatocytes). After a 24-h recovery period, media were removed from the wells by aspiration. The cells were then immediately exposed to the respective test compounds or reference antibiotics (prepared in advance in 100 µL of the same media) for 24 h 37 °C with 5% CO2. The concentration tested ranged from 0.1 µM to 500 µM (0.1 µM, 1 µM, 10 µM, 50 µM, 100 µM, 250 µM, and 500 µM) and was formulated as a 100× concentrated stock each, resulting in a final constant DMSO concentration of 1% per 100-µL sample volume. Test series were each performed in triplicate, and additionally included a vehicle reference (DMSO only) plus another internal control for evaluating overall assay performance. Additionally, cells were visually examined under a light microscope for any morphological abnormalities relative to the untreated cells. Subsequently, cell viability, as an indicator of potential cytotoxicity, was measured by applying the CellTiter-Glo® luminescent cell proliferation assay (G755A, Promega, Madison, WI, USA). This method permits the determination of the number of viable cells in culture based on quantitation of the ATP present, which denotes the presence of metabolically active cells. To this end, 100 µL (equal to the volume of culture medium) of the kit-provided CellTiter-Glo® reagent (reconstituted by transferring the thawed CellTiter-Glo® buffer to the lyophilized enzyme and substrate mixture) was directly added to each well with a repetitive dispensing pipette. The contents were then mixed for 2 min at room temperature on an orbital minishaker (IKA® MS3 digital, Staufen, Germany) at 450 rpm to induce efficient cell lysis, and then further incubated for 10 min at room temperature for stabilization of the resultant luminescent signal. […]

Row | SMILES | Toxicity to healthy cells versus lung cancer cells
9 | Cc1nc2cc(F)c(N3CCN(c4ccc(Cl)c(Cl)c4)CC3)cc2o1 [Compound 7j, 6-[4-(3,4-Dichloro-phenyl)-piperazin-1-yl]-5-fluoro-2-methyl-benzooxazole] | more toxic to healthy cells compared with lung cancer cells

System: not listed separately
Assay: as above
Type: cell-based, human
Settings: human; Liver cells, hepatocytes (HepaRG); 0.1 µM; 24 h; vs DMSO vehicle
Protocol: as §1, §2, §3

Row | SMILES | viability at 24 h, 0.1 µM [%]
10 | COc1cccc(N2CCN(c3cc(O)c([N+](=O)[O-])cc3F)CC2)c1 [Compound 6i, 4-Fluoro-5-[4-(3-methoxy-phenyl)-piperazin-1-yl]-2-nitro-phenol] | 79
11 | Cc1nc2cc(F)c(N3CCN(c4cccc(O)c4)CC3)cc2o1 [Compound 7h, 3-[4-(5-Fluoro-2-methyl-benzooxazol-6-yl)-piperazin-1-yl]-phenol] | 100
12 | Cc1nc2cc(F)c(N3CCN(c4ccc(Cl)c(Cl)c4)CC3)cc2o1 [Compound 7j, 6-[4-(3,4-Dichloro-phenyl)-piperazin-1-yl]-5-fluoro-2-methyl-benzooxazole] | 100
13 | Cc1nc2cc(F)c(N3CCN(c4ccccc4)CC3)cc2o1 [Compound 7a, 5-Fluoro-2-methyl-6-(4-phenylpiperazin-1-yl)-benzo[d]oxazole] | 101

Same assay, conditions: human; Liver cells, hepatocytes (HepaRG); 1 µM; 24 h; vs DMSO vehicle

Row | SMILES | viability at 24 h, 1 µM [%]
14 | COc1cccc(N2CCN(c3cc(O)c([N+](=O)[O-])cc3F)CC2)c1 [Compound 6i, 4-Fluoro-5-[4-(3-methoxy-phenyl)-piperazin-1-yl]-2-nitro-phenol] | 95
15 | Cc1nc2cc(F)c(N3CCN(c4cccc(O)c4)CC3)cc2o1 [Compound 7h, 3-[4-(5-Fluoro-2-methyl-benzooxazol-6-yl)-piperazin-1-yl]-phenol] | 102
16 | Cc1nc2cc(F)c(N3CCN(c4ccc(Cl)c(Cl)c4)CC3)cc2o1 [Compound 7j, 6-[4-(3,4-Dichloro-phenyl)-piperazin-1-yl]-5-fluoro-2-methyl-benzooxazole] | 90
17 | Cc1nc2cc(F)c(N3CCN(c4ccccc4)CC3)cc2o1 [Compound 7a, 5-Fluoro-2-methyl-6-(4-phenylpiperazin-1-yl)-benzo[d]oxazole] | 97

Same assay, conditions: human; Liver cells, hepatocytes (HepaRG); 10 µM; 24 h; vs DMSO vehicle

Row | SMILES | viability at 24 h, 10 µM [%]
18 | COc1cccc(N2CCN(c3cc(O)c([N+](=O)[O-])cc3F)CC2)c1 [Compound 6i, 4-Fluoro-5-[4-(3-methoxy-phenyl)-piperazin-1-yl]-2-nitro-phenol] | 99
19 | Cc1nc2cc(F)c(N3CCN(c4cccc(O)c4)CC3)cc2o1 [Compound 7h, 3-[4-(5-Fluoro-2-methyl-benzooxazol-6-yl)-piperazin-1-yl]-phenol] | 99
20 | Cc1nc2cc(F)c(N3CCN(c4ccc(Cl)c(Cl)c4)CC3)cc2o1 [Compound 7j, 6-[4-(3,4-Dichloro-phenyl)-piperazin-1-yl]-5-fluoro-2-methyl-benzooxazole] | 85
21 | Cc1nc2cc(F)c(N3CCN(c4ccccc4)CC3)cc2o1 [Compound 7a, 5-Fluoro-2-methyl-6-(4-phenylpiperazin-1-yl)-benzo[d]oxazole] | 94

Same assay, conditions: human; Liver cells, hepatocytes (HepaRG); 50 µM; 24 h; vs DMSO vehicle

Row | SMILES | viability at 24 h, 50 µM [%]
22 | Cc1nc2cc(F)c(N3CCN(c4ccc(Cl)c(Cl)c4)CC3)cc2o1 [Compound 7j, 6-[4-(3,4-Dichloro-phenyl)-piperazin-1-yl]-5-fluoro-2-methyl-benzooxazole] | 65

Same assay, conditions: human; Liver cells, hepatocytes (HepaRG); 100 µM; 24 h; vs DMSO vehicle

Row | SMILES | viability at 24 h, 100 µM [%]
23 | Cc1nc2cc(F)c(N3CCN(c4ccc(Cl)c(Cl)c4)CC3)cc2o1 [Compound 7j, 6-[4-(3,4-Dichloro-phenyl)-piperazin-1-yl]-5-fluoro-2-methyl-benzooxazole] | 27

Same assay, conditions: human; Liver cells, hepatocytes (HepaRG); 250 µM; 24 h; vs DMSO vehicle

Row | SMILES | viability at 24 h, 250 µM [%]
24 | Cc1nc2cc(F)c(N3CCN(c4ccc(Cl)c(Cl)c4)CC3)cc2o1 [Compound 7j, 6-[4-(3,4-Dichloro-phenyl)-piperazin-1-yl]-5-fluoro-2-methyl-benzooxazole] | 7

Same assay, conditions: human; Liver cells, hepatocytes (HepaRG); 500 µM; 24 h; vs DMSO vehicle

Row | SMILES | viability at 24 h, 500 µM [%]
25 | Cc1nc2cc(F)c(N3CCN(c4ccc(Cl)c(Cl)c4)CC3)cc2o1 [Compound 7j, 6-[4-(3,4-Dichloro-phenyl)-piperazin-1-yl]-5-fluoro-2-methyl-benzooxazole] | 7

System: A-549 lung carcinoma cells
Assay: CellTiter-Glo luminescent cell viability (cytotoxicity) assay on lung cancer cells
Type: cell-based, human
Settings: Homo sapiens, A549; Lung cancer cells (A-549); 0.1 µM; 24 h; vs DMSO vehicle
Protocol: as §1, §2, §3

Row | SMILES | viability at 0.1 µM [%]
26 | COc1cccc(N2CCN(c3cc(O)c([N+](=O)[O-])cc3F)CC2)c1 [Compound 6i, 4-Fluoro-5-[4-(3-methoxy-phenyl)-piperazin-1-yl]-2-nitro-phenol] | 95
27 | Cc1nc2cc(F)c(N3CCN(c4cccc(O)c4)CC3)cc2o1 [Compound 7h, 3-[4-(5-Fluoro-2-methyl-benzooxazol-6-yl)-piperazin-1-yl]-phenol] | 100
28 | Cc1nc2cc(F)c(N3CCN(c4ccc(Cl)c(Cl)c4)CC3)cc2o1 [Compound 7j, 6-[4-(3,4-Dichloro-phenyl)-piperazin-1-yl]-5-fluoro-2-methyl-benzooxazole] | 98
29 | Cc1nc2cc(F)c(N3CCN(c4ccccc4)CC3)cc2o1 [Compound 7a, 5-Fluoro-2-methyl-6-(4-phenylpiperazin-1-yl)-benzo[d]oxazole] | 101

Same assay, conditions: Homo sapiens, A549; Lung cancer cells (A-549); 1 µM; 24 h; vs DMSO vehicle

Row | SMILES | viability at 1 µM [%]
30 | COc1cccc(N2CCN(c3cc(O)c([N+](=O)[O-])cc3F)CC2)c1 [Compound 6i, 4-Fluoro-5-[4-(3-methoxy-phenyl)-piperazin-1-yl]-2-nitro-phenol] | 93
31 | Cc1nc2cc(F)c(N3CCN(c4cccc(O)c4)CC3)cc2o1 [Compound 7h, 3-[4-(5-Fluoro-2-methyl-benzooxazol-6-yl)-piperazin-1-yl]-phenol] | 93
32 | Cc1nc2cc(F)c(N3CCN(c4ccc(Cl)c(Cl)c4)CC3)cc2o1 [Compound 7j, 6-[4-(3,4-Dichloro-phenyl)-piperazin-1-yl]-5-fluoro-2-methyl-benzooxazole] | 94
33 | Cc1nc2cc(F)c(N3CCN(c4ccccc4)CC3)cc2o1 [Compound 7a, 5-Fluoro-2-methyl-6-(4-phenylpiperazin-1-yl)-benzo[d]oxazole] | 96

Same assay, conditions: Homo sapiens, A549; Lung cancer cells (A-549); 10 µM; 24 h; vs DMSO vehicle

Row | SMILES | viability at 10 µM [%]
34 | COc1cccc(N2CCN(c3cc(O)c([N+](=O)[O-])cc3F)CC2)c1 [Compound 6i, 4-Fluoro-5-[4-(3-methoxy-phenyl)-piperazin-1-yl]-2-nitro-phenol] | 96
35 | Cc1nc2cc(F)c(N3CCN(c4cccc(O)c4)CC3)cc2o1 [Compound 7h, 3-[4-(5-Fluoro-2-methyl-benzooxazol-6-yl)-piperazin-1-yl]-phenol] | 97
36 | Cc1nc2cc(F)c(N3CCN(c4ccc(Cl)c(Cl)c4)CC3)cc2o1 [Compound 7j, 6-[4-(3,4-Dichloro-phenyl)-piperazin-1-yl]-5-fluoro-2-methyl-benzooxazole] | 81
37 | Cc1nc2cc(F)c(N3CCN(c4ccccc4)CC3)cc2o1 [Compound 7a, 5-Fluoro-2-methyl-6-(4-phenylpiperazin-1-yl)-benzo[d]oxazole] | 90

Same assay, conditions: Homo sapiens, A549; Lung cancer cells (A-549); 50 µM; 24 h; vs DMSO vehicle

Row | SMILES | viability at 50 µM [%]
38 | COc1cccc(N2CCN(c3cc(O)c([N+](=O)[O-])cc3F)CC2)c1 [Compound 6i, 4-Fluoro-5-[4-(3-methoxy-phenyl)-piperazin-1-yl]-2-nitro-phenol] | 69
39 | Cc1nc2cc(F)c(N3CCN(c4cccc(O)c4)CC3)cc2o1 [Compound 7h, 3-[4-(5-Fluoro-2-methyl-benzooxazol-6-yl)-piperazin-1-yl]-phenol] | 95
40 | Cc1nc2cc(F)c(N3CCN(c4ccc(Cl)c(Cl)c4)CC3)cc2o1 [Compound 7j, 6-[4-(3,4-Dichloro-phenyl)-piperazin-1-yl]-5-fluoro-2-methyl-benzooxazole] | 70
41 | Cc1nc2cc(F)c(N3CCN(c4ccccc4)CC3)cc2o1 [Compound 7a, 5-Fluoro-2-methyl-6-(4-phenylpiperazin-1-yl)-benzo[d]oxazole] | 60

Same assay, conditions: Homo sapiens, A549; Lung cancer cells (A-549); 100 µM; 24 h; vs DMSO vehicle

Row | SMILES | viability at 100 µM [%]
42 | Cc1nc2cc(F)c(N3CCN(c4cccc(O)c4)CC3)cc2o1 [Compound 7h, 3-[4-(5-Fluoro-2-methyl-benzooxazol-6-yl)-piperazin-1-yl]-phenol] | 90
43 | Cc1nc2cc(F)c(N3CCN(c4ccc(Cl)c(Cl)c4)CC3)cc2o1 [Compound 7j, 6-[4-(3,4-Dichloro-phenyl)-piperazin-1-yl]-5-fluoro-2-methyl-benzooxazole] | 47

Same assay, conditions: Homo sapiens, A549; Lung cancer cells (A-549); 250 µM; 24 h; vs DMSO vehicle

Row | SMILES | viability at 250 µM [%]
44 | Cc1nc2cc(F)c(N3CCN(c4ccc(Cl)c(Cl)c4)CC3)cc2o1 [Compound 7j, 6-[4-(3,4-Dichloro-phenyl)-piperazin-1-yl]-5-fluoro-2-methyl-benzooxazole] | 28
